Measured values taken from PubChem BioAssay (NCI).
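1) Cells in 96-well plates. 2) Compound, 48 h, 5 concentrations. 3) Linear interpolation between surrounding doses. 4) Unreached endpoint = highest concentration. GI50 = concentration required for 50% inhibition of growth. TGI denotes the concentration required for complete inhibition of growth.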

Experiments:
Assay in all cases: NCI anticancer screen, dose series, 48 h
DU-145 prostate = tested on: DU-145 prostate
OVCAR-5 ovarian = tested on: OVCAR-5 ovarian
BT-549 breast = tested on: BT-549 breast
OVCAR-3 ovarian = tested on: OVCAR-3 ovarian
CCRF-CEM leukemia = tested on: CCRF-CEM leukemia
ACHN renal = tested on: ACHN renal
TK-10 renal = tested on: TK-10 renal
SK-MEL-28 melanoma = tested on: SK-MEL-28 melanoma
HOP-62 NSCLC = tested on: HOP-62 NSCLC
MALME-3M melanoma = tested on: MALME-3M melanoma

Compound | TGI (DU-145 prostate) [µM] | TGI (OVCAR-5 ovarian) [µM] | TGI (BT-549 breast) [µM] | TGI (OVCAR-3 ovarian) [µM] | TGI (CCRF-CEM leukemia) [µM] | TGI (ACHN renal) [µM] | TGI (TK-10 renal) [µM] | TGI (SK-MEL-28 melanoma) [µM] | TGI (HOP-62 NSCLC) [µM] | TGI (MALME-3M melanoma) [µM] | GI50 (CCRF-CEM leukemia) [µM] | GI50 (BT-549 breast) [µM] | GI50 (SK-MEL-28 melanoma) [µM] | GI50 (HOP-62 NSCLC) [µM]
COC(CC1(CCNc2ccccc2)C(=O)N(COCC[Si](C)(C)C)c2ccccc21)OC (stereo not drawn) | 64.7 | 35 | 32.5 | 31.6 | > 31.6 | 37.1 | 28.9 | 30.1 | 28 | – | – | – | – | –
COc1ccc(C(=O)/C=C/c2ccc(OCCCOc3ccc(/C=C/C(=O)c4ccc(OC)c(OC)c4)cc3)cc2)cc1OC | > 100 | – | – | – | > 100 | > 100 | > 100 | > 100 | > 100 | – | – | – | – | –
N#C[C@H]1C(=O)C(c2nc3ccccc3[nH]2)S[C@H]1c1ccccc1 (stereo partly drawn) | > 100 | > 100 | 92.4 | > 100 | > 100 | 57.6 | > 100 | > 100 | – | > 100 | – | – | – | –
COC(C[C@H]1CCCC[C@]1(O)/C(=C\CO[Si](C(C)C)(C(C)C)C(C)C)Sc1ccccc1)OC | > 100 | > 100 | – | – | > 100 | > 100 | > 100 | > 100 | > 100 | 86.4 | – | – | – | –
c1cc2c3c(c1)[C@@H]1O[C@@H]1c1cccc(c1-3)[C@@H]1O[C@H]21 | 38.7 | 31.4 | 98.5 | – | – | 43 | > 100 | 31.3 | > 100 | 29.6 | – | – | – | –
CC(C)(C)C(=O)O[C@H]1C=C[C@@H](O)[C@@H]2[C@H]1[C@@H]1C=C[C@H]2C1 | > 100 | 6.42 | > 100 | > 100 | > 100 | > 100 | > 100 | 59.2 | – | – | – | – | – | –
CCC(=O)Nc1ccc(N2C(=O)/C(=C/c3ccc(O)c(OC)c3)N=C2c2ccccc2)cc1 | > 100 | > 100 | 44.9 | > 100 | > 100 | 89.9 | – | > 100 | > 100 | > 100 | – | – | – | –
C/C(=C\COP(=O)(O)OP(=O)(O)O)CC/C=C(\C)CNc1ccccc1 | > 50 | > 50 | 44.5 | – | 10.3 | > 50 | > 50 | > 50 | > 50 | – | – | – | – | –
Cc1cccc(=O)c([O-])c1.Cc1cccc(=O)c([O-])c1.Cc1cccc(=O)c([O-])c1.Cc1cccc(=O)c([O-])c1.[Th+4] | – | > 100 | – | > 22 | 49.7 | > 100 | > 100 | > 100 | > 100 | > 100 | 2.52 | – | – | –
Clc1ccc(Cc2nc3ccccc3nc2-c2cccc(Cl)c2)cc1 | 40.6 | 21.2 | 16.7 | 17.4 | 0.174 | 3.45 | 25.9 | – | 38.1 | 8.24 | – | – | – | –
CCn1c(O)c(C(=O)NC(C)c2ccc([N+](=O)[O-])cc2)c(=O)n(CC)c1=S (stereo not drawn) | 8.98 | 6.77 | 8.8 | 10.5 | 11.9 | 11.2 | 17 | 17.6 | 6.54 | – | – | – | – | –
Cc1sc2nc3n(sc4nc5sc(C)c(C)c5c(=O)n43)c(=O)c2c1C | > 100 | > 100 | > 100 | > 100 | 45.1 | – | > 100 | > 100 | – | – | – | – | – | –
O=C1NC(=S)N/C1=C\c1ccc(Sc2ccccc2C(=O)O)s1 | > 100 | > 100 | > 100 | > 100 | – | > 100 | > 100 | > 100 | > 100 | > 100 | – | – | – | –
S=c1oc(CCCCCCCCc2nn(CNc3ccc(Cl)cc3)c(=S)o2)nn1CNc1ccc(Cl)cc1 | > 100 | > 100 | > 100 | – | – | > 100 | > 100 | > 100 | 76.1 | > 100 | – | – | – | –
CCCCN(CCCC)C1=Nc2ccccc2-n2c(nnc2C(=O)OCC)C1 | > 100 | > 100 | – | > 100 | > 100 | > 100 | > 100 | > 100 | > 100 | 82.1 | – | – | – | –
Cc1c(Cl)c(=O)oc2cc(OCC(O)COC(C)C)ccc12 (stereo not drawn) | > 100 | > 100 | – | > 100 | > 100 | > 100 | > 100 | > 100 | > 100 | 35.8 | – | – | – | –
Cc1cn([C@@H]2C[C@](C)(CO)N(C)O2)c(=O)[nH]c1=O | > 100 | > 100 | > 100 | – | > 100 | > 100 | > 100 | > 100 | > 100 | > 100 | – | – | – | –
Cc1cc(C)c(C#N)c(SC(=S)NC(=O)c2ccccc2)n1 | > 100 | > 100 | > 100 | – | > 100 | > 100 | > 100 | > 100 | > 100 | > 100 | – | – | – | –
Cn1cnc(/C=C/C#N)c1 | – | > 100 | > 100 | > 100 | > 100 | > 100 | > 100 | > 100 | > 100 | > 100 | – | – | – | –
O=C1/C(=C/c2cccs2)N=C(c2ccccc2)N1c1nc2ccccc2s1 | > 100 | > 100 | > 100 | > 100 | 0.976 | > 100 | > 100 | > 100 | > 100 | – | – | – | – | –
C=C(C)[C@@H]1CC[C@]2(C(=O)OC3OC(COC4OC(CO)C(OC5OC(C)C(O)C(O)C5O)C(O)C4O)C(O)C(O)C3O)CC[C@]3(C)[C@H](CC[C@@H]4[C@@]5(C)CC[C@H](O)[C@@](C)(CO)[C@@H]5CC[C@]43C)[C@@H]12 (stereo partly drawn) | > 10 | > 10 | > 8.43 | 5.16 | – | > 10 | > 10 | > 10 | > 10 | > 10 | – | – | – | –
Cc1ccc(C(=O)NN=C(/N=N/c2cccc(C)c2)c2ccc(N(C)C)cc2)cc1 | > 100 | > 100 | > 100 | > 100 | > 100 | > 100 | > 100 | > 100 | – | – | – | – | – | –
C=C1C(=O)O[C@H]2[C@H]1CC/C(COC(=O)/C=C/C(=O)OC/C1=C/CC[C@@]3(C)O[C@H]3[C@H]3OC(=O)C(=C)[C@@H]3CC1)=C\CC[C@@]1(C)O[C@@H]21 | – | – | 4.41 | – | – | – | – | 4.13 | > 100 | – | – | 1.58 | 1.56 | 5.43
